Entries after “also recorded” stand apart in the source; their conditions may differ.
Legend:
Assay type in all cases: in vivo, mice
[1] = system: endometriotic lesions (experimental endometriosis); assay: Growth of luminescent endometriotic lesions monitored weekly by IVIS bioluminescence imaging; conditions: for lesion bioluminescence relative to baseline levels / lesion bioluminescence intensity compared with saline group: i.p. once per day, 4 weeks, EGCG, pro-EGCG 50 mg/kg; for lesion bioluminescence intensity compared with saline group: vitamin E 20 mg/kg
Description: Based on our previous study, an immune-compromised mouse model of experimental endometriosis was created by subcutaneous transplantation of human or mouse tissues to assess the anti-angiogenic effects and mechanisms of green tea catechin (Xu H, et al. Hum Reprod 2009; 24:608-18; Xu H, et al. Fertil Steril 2011; 96:1021-8).
(§1) In this study, endometrial tissues from eight-week-old female CMV-Luc mice (n=15) were acquired for transplantation into nonluminescent NOD-SCID mice (n=32). The mouse endometrium was obtained during the proliferating estrous stage, and biopsies 2 mm in diameter were obtained with a sterile dermal biopsy punch (Miltex, NY). The biopsies were immediately washed in prewarmed, phenol-red-free DMEM/F-12 medium (Sigma) to remove residual blood and mucus, and the samples were maintained in serum-free DMEM/F-12 medium before transplantation (Bruner-Tran K L, et al. J Clin Endocrinol Metab 2009; 94:2489-94). Cultured endometrial biopsies were randomly allocated for transplantation.
(§2) Five mouse endometrial biopsies per treatment group were implanted into a single subcutaneous pocket created is the abdominal wall of the mice along the ventral midline immediately below the umbilicus. All of the surgical procedures were performed under general anesthesia with isoflurane (Baxter, IL), and the mice were monitored until they fully recovered.
Development and angiogenesis of the experimental endometriosis were monitored using various in vivo imaging systems. During the intervention, growth of the endometriotic lesions (n=8 per group) was monitored each week by measuring the bioluminescence of the subcutaneous luciferase-positive implants using a non-invasive IVIS 200 live animal imaging system (Xenogen) as previously described (Song C, et al. Hum Gene Ther, 2011; 22:439-49). A total of 150 mg/kg of luciferin was injected intraperitoneally […] 10 mins prior to imaging. An image from each animal was captured at bin size 4 in triplicate, and the bioluminescence signal intensities were averaged for comparison.

[2] = system: endometriotic lesions (experimental endometriosis); assay: Lesion size, weight and histology at end of intervention; conditions: for lesion size compared to control group / lesion weight compared to control group / development and histology of the endometriotic lesions: after 4 weeks i.p. once per day; for lesion size compared to control group / lesion weight compared to control group: EGCG, pro-EGCG 50 mg/kg, vitamin E 20 mg/kg; for development and histology of the endometriotic lesions: microscopic examination
Description: as §1, §2
At the end of intervention, size of the endometriotic lesions was determined as the longest length and perpendicular width according to a venire caliper and was calculated as 0.52×width^2×length in mm^3. The endometrial implants, together with subcutaneous and muscle layers, were removed from the abdomen wall for detailed histological examination and specific staining analysis.
Paraffin sections (n=4 per group) were prepared for standard hematoxylin and eosin (H&E) staining, angiogenesis immunostaining and TUNEL staining as previously described (Xu H, et al. Hum Reprod 2009; 24:608-18.). Immunohistochemistry staining of in situ angiogenesis was performed by the immunoperoxidase method using a MACH 3 HRP Polymer Kit (Biocare Medical, Concord), and counterstained using methyl green or blue solution.

[3] = system: apoptotic cells in the endometriotic lesions; assay: Apoptosis in endometriotic lesions by Cellvizio YO-PRO-1 imaging and TUNEL staining; conditions: after 4 weeks
Procedure: At the end of intervention, functional angiogenesis of the endometriotic lesions (n=8 per group) was monitored by measuring the flow of fluorescence dye in the new microvessels developed in the implants using a Cellvizio® LAB LSU-488 system with a ProFlex Microprobe S1500 (Mauna Kea Technologies, Paris) as previously described (Xu H, et al. Fertil Steril 2011; 96:1021-8.). A total of 10 mg/ml of FITC-Dextran was injected intravenously into each mouse prior to imaging. Total vessel length (μm) and area (μm^2) and functional capillary length (μm^−1) and area density were measured using Cellvizio® LAB Vessel Detection software, and averaged from 4 perpendicular regions of the lesions in replicates. At the same time, apoptotic cells in the lesions were captured by Cellvizio-LAB 488 with a ProFlex MiniO/100 microprobe using Cellvizio® LAB I/C Viewer software (Mauna Kea Technologies). A total of 10 μl of 10 μM YO-PRO®-1 iodide in DSMO was injected into the lesion area.
The total number of apoptotic cells was counted and averaged from the 4 perpendicular regions of the lesions in replicates as described above. Both IVIS and Cellvizio imaging procedures were performed under general anesthesia with isoflurane (Baxter, Ill.), and the mice were observed until fully recovered.
TUNEL labeling for in situ apoptotic cells was performed using an ApopTag Peroxidase In Situ Apoptosis Detection Kit (Temecula, Calif.) according to the manufacturer's instructions. The total numbers of TUNEL-positive stained cells were counted. The mean numbers of apoptotic cells were calculated from 5 separated sections from each animal within the treatment group and are presented as numbers per lesion as above. […] Each section was evaluated by both examiners, who were blinded to the experimental groups and results.

[4] = system: vascular endothelial growth factor (VEGF); assay: VEGF concentrations in plasma and lesions by ELISA
Description: Pharmacokinetics of EGCG and pro-EGCG in the animals were studied by measuring the corresponding EGCG and pro-EGCG concentrations (EGCG in the EGCG group, pro-EGCG in the pro-EGCG group) in plasma during the intervention and also in lesions at the end of intervention. EGCG and pro-EGCG were quantified by analytical methods as previously described (Lam W H, et al. Bioorg Med Chem. 2004; 510:69-93; Chu K O, et al. J Chromat B 2004; 810:187-95; Chu K O, et al. Anal Chim Acta 2004; 510:69-76). Anti-oxidative and anti-angiogenesis capacities of the samples were also studied by measuring oxygen radical absorbance capacity (ORAC) using a modified phycoerythrin fluorescence decay assay as previously described (Wang C C, et al. Clin Chem 2004; 50:952-4), and vascular endothelial growth factor (VEGF) concentrations were measured using a commercial ELISA kit (Uscn Life Science Inc., TX) according to the manufacturer's manual. Blood samples (n=8 per group) were collected from the tail vein once per week, and plasma was prepared by immediate centrifugation. Implants without subcutaneous and muscle layers (n=4 per group) were removed from the abdominal wall, and the endometriotic lesions were frozen. All of the samples were kept in −80° C. prior to analysis.

[5] = after 4 weeks, 50 mg/kg i.p. once per day

Structure (SMILES) | lesion bioluminescence intensity compared with EGCG group ([1]; 50 mg/kg i.p. once per day, 2nd, 3rd and 4th weeks) | lesion bioluminescence relative to baseline levels [1] | lesion bioluminescence intensity compared with saline group [1] | lesion size compared to control group [2] | lesion weight compared to control group [2] | development and histology of the endometriotic lesions [2] | lesion size compared with EGCG-treated mice [2, 5] | lesion weight compared with EGCG-treated mice [2, 5] | apoptotic cell numbers in the lesions compared with EGCG group [3] | total apoptotic cell numbers in the lesions compared to saline group [3] | VEGF concentrations in endometriotic lesions compared to saline group ([4]; lesions after intervention) | VEGF concentrations in endometriotic lesions compared with EGCG group ([4]; lesions after intervention) | VEGF concentrations in plasma compared to saline group ([4]; plasma during intervention) | VEGF concentrations in plasma compared with EGCG group ([4]; plasma during intervention)
CC(=O)Oc1cc(OC(C)=O)c2c(c1)O[C@H](c1cc(OC(C)=O)c(OC(C)=O)c(OC(C)=O)c1)[C@H](OC(=O)c1cc(OC(C)=O)c(OC(C)=O)c(OC(C)=O)c1)C2 [pro-EGCG, (−)-EGCG octaacetate] | significantly lower than that of both the saline group and the EGCG group at the 2nd, 3rd and 4th weeks | decreased further below the baseline levels | significantly lower than that of both the saline group and the EGCG group at the 2nd, 3rd and 4th weeks | significantly decreased | significantly decreased | poorly developed; also recorded: degraded and almost detached from the peritoneal muscle layers | significantly smaller | lighter | significantly higher than the number in the EGCG group | significantly increased | significantly decreased | significantly lower than those in the EGCG group | significantly decreased | significantly lower than those in the EGCG group
O=C(O[C@@H]1Cc2c(O)cc(O)cc2O[C@@H]1c1cc(O)c(O)c(O)c1)c1cc(O)c(O)c(O)c1 [EGCG, (−)-epigallocatechin-3-gallate] | – | maintained around the baseline levels | significantly lower than that of the saline group at the 2nd, 3rd and 4th weeks | significantly decreased | significantly decreased | poorly developed; also recorded: small and loosely attached to the adjacent tissues | – | – | – | significantly increased | significantly decreased | – | significantly decreased | –
